Measured values published in article PMC12090182, “Repurposing of the RIPK1-Selective Benzo[1,4]oxazepin-4-one Scaffold for the Development of a Type III LIMK1/2 Inhibitor” (ACS Chemical Biology, 2025).

What was measured:
Assay in all cases: scanMAX KINOMEscan (Eurofins)
Assay type in all cases: binding
FES = FES (Homo sapiens, UniProt P07332); conditions: read-out: Percent Control
Source text: (§1) Supplement cb5c00097_si_002.xlsx, sheet "Table S6 (Eurofins Selectivity)" | column: Percent Control

PFTAIRE2 = PFTAIRE2 (Homo sapiens, UniProt Q96Q40); conditions: 1000 nM, read-out: Percent Control
Source text: as §1

EPHA7 = EPHA7 (Homo sapiens, UniProt Q15375); conditions: read-out: Percent Control
EPHA7, sequence (Q15375 28-998): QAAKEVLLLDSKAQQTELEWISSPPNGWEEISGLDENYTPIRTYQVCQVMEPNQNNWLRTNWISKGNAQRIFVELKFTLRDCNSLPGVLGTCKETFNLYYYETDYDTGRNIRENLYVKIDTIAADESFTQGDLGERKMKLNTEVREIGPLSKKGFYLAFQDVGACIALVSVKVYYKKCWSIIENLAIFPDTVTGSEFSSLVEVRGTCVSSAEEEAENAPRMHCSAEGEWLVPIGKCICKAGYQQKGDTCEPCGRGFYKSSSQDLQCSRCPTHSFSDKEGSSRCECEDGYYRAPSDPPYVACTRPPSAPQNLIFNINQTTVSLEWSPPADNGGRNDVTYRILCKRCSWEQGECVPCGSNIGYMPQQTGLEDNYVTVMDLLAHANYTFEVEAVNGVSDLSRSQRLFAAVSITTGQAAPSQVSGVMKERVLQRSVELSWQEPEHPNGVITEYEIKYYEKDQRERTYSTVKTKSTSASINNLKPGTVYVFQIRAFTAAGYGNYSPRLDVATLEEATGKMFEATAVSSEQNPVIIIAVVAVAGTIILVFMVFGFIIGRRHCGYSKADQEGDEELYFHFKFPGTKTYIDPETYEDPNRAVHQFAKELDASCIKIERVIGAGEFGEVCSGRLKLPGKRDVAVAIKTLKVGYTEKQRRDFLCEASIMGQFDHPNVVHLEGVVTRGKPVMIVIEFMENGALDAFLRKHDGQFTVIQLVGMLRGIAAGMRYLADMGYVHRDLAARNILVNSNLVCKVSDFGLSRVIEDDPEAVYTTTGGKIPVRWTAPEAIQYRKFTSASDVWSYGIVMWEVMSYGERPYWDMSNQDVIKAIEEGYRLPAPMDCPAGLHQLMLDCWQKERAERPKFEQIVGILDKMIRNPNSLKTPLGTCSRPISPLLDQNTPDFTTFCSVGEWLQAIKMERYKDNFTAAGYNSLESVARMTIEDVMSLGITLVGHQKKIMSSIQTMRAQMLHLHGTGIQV
Source text: as §1

PRKX = PRKX (Homo sapiens, UniProt P51817); conditions: 1000 nM, read-out: Percent Control
Source text: as §1

VPS34 = VPS34 (Homo sapiens, UniProt Q8NEB9); conditions: compound concentration 100 nM; Entrez PIK3C3; read-out: Percent Control
Source text: as §1

AURKA = AURKA (Homo sapiens, UniProt O14965); conditions: 1000 nM, read-out: Percent Control
Source text: as §1

ROCK2 = ROCK2 (Homo sapiens, UniProt O75116); conditions: 1000 nM, read-out: Percent Control
Source text: as §1

ZAK = ZAK (Homo sapiens, UniProt Q9NYL2); conditions: compound concentration 100 nM; Entrez ZAK; read-out: Percent Control
Source text: as §1

TIE2 = TIE2 (Homo sapiens, UniProt Q02763); conditions: compound concentration 100 nM; Entrez TEK; read-out: Percent Control
Source text: as §1

TNNI3K = TNNI3K (Homo sapiens, UniProt Q59H18); conditions: 1000 nM, read-out: Percent Control
Source text: as §1

RAF1 = RAF1 (Homo sapiens, UniProt P04049); conditions: compound concentration 100 nM; Entrez RAF1; read-out: Percent Control
Source text: as §1

NEK6 = NEK6 (Homo sapiens, UniProt Q9HC98); conditions: compound concentration 100 nM; Entrez NEK6; read-out: Percent Control
Source text: as §1

TRPM6 = TRPM6 (Homo sapiens, UniProt Q9BX84); conditions: compound concentration 100 nM; Entrez TRPM6; read-out: Percent Control
Source text: as §1

DAPK3 = DAPK3 (Homo sapiens, UniProt O43293); conditions: 1000 nM, read-out: Percent Control
Source text: as §1

CAMK1B = CAMK1B (Homo sapiens, UniProt Q6P2M8); conditions: 1000 nM, read-out: Percent Control
Source text: as §1

PAK1 = PAK1 (Homo sapiens, UniProt Q13153); conditions: 1000 nM, read-out: Percent Control
Source text: as §1

CDK4-cyclinD3 = CDK4-cyclinD3 (Homo sapiens, UniProt P11802); conditions: 1000 nM, read-out: Percent Control
Source text: as §1

TLK2 = TLK2 (Homo sapiens, UniProt Q86UE8); conditions: compound concentration 100 nM; Entrez TLK2; read-out: Percent Control
Source text: as §1

PIK3CG = PIK3CG (Homo sapiens, UniProt P48736); conditions: 1000 nM, read-out: Percent Control
Source text: as §1

[1] = molecular target: JAK1(JH1domain-catalytic) (Homo sapiens, UniProt P23458); conditions: 1000 nM, read-out: Percent Control
Source text: as §1

PAK2 = PAK2 (Homo sapiens, UniProt Q13177); conditions: 1000 nM, read-out: Percent Control
Source text: as §1

CAMK2G = CAMK2G (Homo sapiens, UniProt Q13555); conditions: 1000 nM, read-out: Percent Control
Source text: as §1

BRK = BRK (Homo sapiens, UniProt Q13882); conditions: 1000 nM, read-out: Percent Control
Source text: as §1

NIM1 = NIM1 (Homo sapiens, UniProt Q8IY84); conditions: compound concentration 100 nM; Entrez MGC42105; read-out: Percent Control
Source text: as §1

EPHA3 = EPHA3 (Homo sapiens, UniProt P29320); conditions: read-out: Percent Control
EPHA3, sequence (P29320 21-983): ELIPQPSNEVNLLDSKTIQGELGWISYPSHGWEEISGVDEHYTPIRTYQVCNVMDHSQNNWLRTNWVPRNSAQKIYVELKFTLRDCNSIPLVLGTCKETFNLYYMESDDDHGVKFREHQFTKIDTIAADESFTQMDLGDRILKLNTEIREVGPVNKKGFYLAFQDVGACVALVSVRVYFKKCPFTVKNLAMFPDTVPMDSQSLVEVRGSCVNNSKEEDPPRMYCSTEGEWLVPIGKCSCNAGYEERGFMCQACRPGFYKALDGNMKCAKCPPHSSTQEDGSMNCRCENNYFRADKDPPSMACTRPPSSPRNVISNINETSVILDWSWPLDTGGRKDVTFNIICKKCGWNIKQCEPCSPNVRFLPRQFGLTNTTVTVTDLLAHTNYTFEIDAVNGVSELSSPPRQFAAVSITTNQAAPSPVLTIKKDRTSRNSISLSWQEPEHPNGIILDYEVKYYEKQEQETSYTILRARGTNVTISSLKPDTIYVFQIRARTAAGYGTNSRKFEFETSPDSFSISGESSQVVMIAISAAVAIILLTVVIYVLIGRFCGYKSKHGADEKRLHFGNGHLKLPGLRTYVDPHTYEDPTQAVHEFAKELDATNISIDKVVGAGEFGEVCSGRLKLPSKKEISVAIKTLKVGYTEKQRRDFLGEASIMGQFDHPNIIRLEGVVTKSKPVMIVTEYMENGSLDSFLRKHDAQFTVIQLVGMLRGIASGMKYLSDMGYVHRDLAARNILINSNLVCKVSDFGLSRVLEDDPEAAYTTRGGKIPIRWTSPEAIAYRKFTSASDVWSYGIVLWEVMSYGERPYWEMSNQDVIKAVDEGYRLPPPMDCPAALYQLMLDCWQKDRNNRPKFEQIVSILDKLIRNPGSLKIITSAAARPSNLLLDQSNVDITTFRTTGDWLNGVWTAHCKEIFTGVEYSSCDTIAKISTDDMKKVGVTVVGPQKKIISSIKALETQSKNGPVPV
Source text: as §1

TAOK3 = TAOK3 (Homo sapiens, UniProt Q9H2K8); conditions: 1000 nM, read-out: Percent Control
Source text: as §1

EPHA4 = EPHA4 (Homo sapiens, UniProt P54764); conditions: read-out: Percent Control
EPHA4, sequence (P54764 20-986): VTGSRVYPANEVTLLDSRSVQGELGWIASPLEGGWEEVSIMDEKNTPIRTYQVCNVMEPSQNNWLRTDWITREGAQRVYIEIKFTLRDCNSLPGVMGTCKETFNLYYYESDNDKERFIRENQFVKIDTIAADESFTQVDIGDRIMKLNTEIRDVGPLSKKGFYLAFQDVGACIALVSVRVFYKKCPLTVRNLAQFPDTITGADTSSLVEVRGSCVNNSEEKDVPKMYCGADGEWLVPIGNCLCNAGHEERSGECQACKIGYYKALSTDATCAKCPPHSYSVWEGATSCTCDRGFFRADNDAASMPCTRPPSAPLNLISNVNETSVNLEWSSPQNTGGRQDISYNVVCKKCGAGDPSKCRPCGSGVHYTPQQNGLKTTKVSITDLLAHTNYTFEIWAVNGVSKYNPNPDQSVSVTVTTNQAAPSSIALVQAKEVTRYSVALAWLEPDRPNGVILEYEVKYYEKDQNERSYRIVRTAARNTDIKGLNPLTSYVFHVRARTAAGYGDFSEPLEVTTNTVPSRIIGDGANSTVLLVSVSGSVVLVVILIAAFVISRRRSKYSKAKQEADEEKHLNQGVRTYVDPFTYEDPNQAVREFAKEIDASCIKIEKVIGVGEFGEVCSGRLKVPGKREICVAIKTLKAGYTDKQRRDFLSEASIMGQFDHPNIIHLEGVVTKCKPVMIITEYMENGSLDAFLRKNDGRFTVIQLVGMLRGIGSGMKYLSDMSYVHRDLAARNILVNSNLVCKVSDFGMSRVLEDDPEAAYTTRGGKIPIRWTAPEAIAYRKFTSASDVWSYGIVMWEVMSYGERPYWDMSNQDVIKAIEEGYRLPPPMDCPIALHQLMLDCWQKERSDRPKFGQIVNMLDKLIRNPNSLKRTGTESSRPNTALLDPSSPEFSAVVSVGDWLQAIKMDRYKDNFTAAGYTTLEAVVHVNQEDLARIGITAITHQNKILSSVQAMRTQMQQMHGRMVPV
Source text: as §1

SNARK = SNARK (Homo sapiens, UniProt Q9H093); conditions: 1000 nM, read-out: Percent Control
Source text: as §1

SYK = SYK (Homo sapiens, UniProt P43405); conditions: 1000 nM, read-out: Percent Control
Source text: as §1

SLK = SLK (Homo sapiens, UniProt Q9H2G2); conditions: 1000 nM, read-out: Percent Control
Source text: as §1

BRSK1 = BRSK1 (Homo sapiens, UniProt Q8TDC3); conditions: 1000 nM, read-out: Percent Control
Source text: as §1

MST2 = MST2 (Homo sapiens, UniProt Q13188); conditions: 1000 nM, read-out: Percent Control
Source text: as §1

MEK1 = MEK1 (Homo sapiens, UniProt Q02750); conditions: compound concentration 100 nM; Entrez MAP2K1; read-out: Percent Control
MEK1, sequence (Q02750 whole entry): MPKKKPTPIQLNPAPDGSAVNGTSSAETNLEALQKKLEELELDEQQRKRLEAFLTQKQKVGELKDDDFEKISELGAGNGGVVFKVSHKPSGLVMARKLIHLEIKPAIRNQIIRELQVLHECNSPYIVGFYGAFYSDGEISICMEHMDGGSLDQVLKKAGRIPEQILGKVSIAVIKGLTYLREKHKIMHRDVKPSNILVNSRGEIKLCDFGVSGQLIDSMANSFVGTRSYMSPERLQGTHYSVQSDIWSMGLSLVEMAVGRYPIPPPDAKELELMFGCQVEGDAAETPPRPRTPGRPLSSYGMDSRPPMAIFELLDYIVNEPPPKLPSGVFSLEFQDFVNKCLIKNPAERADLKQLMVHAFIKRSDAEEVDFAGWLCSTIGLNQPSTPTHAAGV
Source text: as §1

FLT3 = FLT3 (Homo sapiens, UniProt P36888); conditions: read-out: Percent Control
FLT3, sequence (P36888 27-993): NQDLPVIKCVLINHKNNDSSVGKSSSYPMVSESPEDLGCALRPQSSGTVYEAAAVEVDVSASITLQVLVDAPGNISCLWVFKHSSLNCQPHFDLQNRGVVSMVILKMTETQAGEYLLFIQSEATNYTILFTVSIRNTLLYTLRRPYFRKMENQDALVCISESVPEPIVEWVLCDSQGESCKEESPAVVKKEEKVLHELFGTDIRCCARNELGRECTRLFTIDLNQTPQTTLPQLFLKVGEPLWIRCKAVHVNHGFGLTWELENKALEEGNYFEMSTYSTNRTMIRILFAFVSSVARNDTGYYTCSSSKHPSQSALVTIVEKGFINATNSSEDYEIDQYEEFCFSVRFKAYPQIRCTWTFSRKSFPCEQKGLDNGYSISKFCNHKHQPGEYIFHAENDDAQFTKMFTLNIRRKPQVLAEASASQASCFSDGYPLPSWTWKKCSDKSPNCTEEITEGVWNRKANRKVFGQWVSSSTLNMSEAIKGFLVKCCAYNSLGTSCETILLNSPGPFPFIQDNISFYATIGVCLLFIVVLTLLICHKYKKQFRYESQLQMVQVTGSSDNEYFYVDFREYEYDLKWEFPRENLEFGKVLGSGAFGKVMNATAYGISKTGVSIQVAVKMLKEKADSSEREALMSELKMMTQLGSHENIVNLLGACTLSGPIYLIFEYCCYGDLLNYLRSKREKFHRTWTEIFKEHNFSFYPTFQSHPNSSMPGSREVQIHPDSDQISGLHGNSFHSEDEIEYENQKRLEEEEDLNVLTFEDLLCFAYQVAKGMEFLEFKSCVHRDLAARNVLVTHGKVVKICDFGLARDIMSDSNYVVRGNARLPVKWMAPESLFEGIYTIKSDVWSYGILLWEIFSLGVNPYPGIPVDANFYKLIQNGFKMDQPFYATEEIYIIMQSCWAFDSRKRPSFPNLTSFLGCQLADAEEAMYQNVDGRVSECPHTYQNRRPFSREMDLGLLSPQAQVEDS
Source text: as §1

PCTK2 = PCTK2 (Homo sapiens, UniProt Q00537); conditions: 1000 nM, read-out: Percent Control
Source text: as §1

TTK = TTK (Homo sapiens, UniProt P33981); conditions: 1000 nM, read-out: Percent Control
Source text: as §1

FES, sequence (P07332 whole entry): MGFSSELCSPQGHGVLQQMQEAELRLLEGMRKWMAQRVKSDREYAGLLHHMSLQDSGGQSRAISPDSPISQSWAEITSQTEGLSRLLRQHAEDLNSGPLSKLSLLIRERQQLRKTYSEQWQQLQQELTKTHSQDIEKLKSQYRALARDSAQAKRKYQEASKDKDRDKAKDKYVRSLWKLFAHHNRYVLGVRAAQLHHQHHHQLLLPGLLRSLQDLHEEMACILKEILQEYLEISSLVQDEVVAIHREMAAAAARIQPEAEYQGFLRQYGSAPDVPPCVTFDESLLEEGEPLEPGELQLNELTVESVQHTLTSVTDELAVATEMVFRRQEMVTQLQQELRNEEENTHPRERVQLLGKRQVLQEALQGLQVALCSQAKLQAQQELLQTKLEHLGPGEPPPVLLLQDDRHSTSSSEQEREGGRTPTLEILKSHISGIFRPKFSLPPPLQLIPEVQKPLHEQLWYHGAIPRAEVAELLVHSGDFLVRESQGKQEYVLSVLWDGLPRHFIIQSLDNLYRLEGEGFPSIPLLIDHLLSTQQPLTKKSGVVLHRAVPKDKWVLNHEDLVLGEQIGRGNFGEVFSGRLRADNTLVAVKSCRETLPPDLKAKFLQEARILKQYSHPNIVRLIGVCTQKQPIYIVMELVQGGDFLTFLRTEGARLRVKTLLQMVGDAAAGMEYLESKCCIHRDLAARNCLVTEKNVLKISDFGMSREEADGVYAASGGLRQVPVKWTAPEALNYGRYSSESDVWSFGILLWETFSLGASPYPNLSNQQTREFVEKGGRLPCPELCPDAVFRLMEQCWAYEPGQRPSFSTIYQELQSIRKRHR

Question: What does the source list for CN1C(=O)[C@@H](N2CCc3c(nn(Cc4ccccc4)c3C(N)=O)C2=O)COc2cc(Cl)ccc21 [Compound 10, (S)-2-benzyl-6-(8-chloro-5-methyl-4-oxo-2,3,4,5-tetrahydrobenzo[b][1,4]oxazepin-3-yl)-7-oxo-4,5,6,7-tetrahydro-2H-pyrazolo[3,4-c]pyridine-3-carboxamide]?
Answer: remaining binding at 1 µM (FES; 1000 nM): 100%; remaining binding at 0.1 µM (FES; compound concentration 100 nM, Entrez FES): 100%; remaining binding at 1 µM (PFTAIRE2): 90%; remaining binding at 1 µM (EPHA7; 1000 nM): 100%; remaining binding at 0.1 µM (EPHA7; compound concentration 100 nM, Entrez EPHA7): 91%; remaining binding at 1 µM (PRKX): 78%; remaining binding at 0.1 µM (VPS34): 100%; remaining binding at 1 µM (AURKA): 72%; remaining binding at 1 µM (ROCK2): 74%; remaining binding at 0.1 µM (ZAK): 89%; remaining binding at 0.1 µM (TIE2): 95%; remaining binding at 1 µM (TNNI3K): 80%; remaining binding at 0.1 µM (RAF1): 100%; remaining binding at 0.1 µM (NEK6): 78%; remaining binding at 0.1 µM (TRPM6): 100%; remaining binding at 1 µM (DAPK3): 87%; remaining binding at 1 µM (CAMK1B): 91%; remaining binding at 1 µM (PAK1): 76%; remaining binding at 1 µM (CDK4-cyclinD3): 95%; remaining binding at 0.1 µM (TLK2): 82%; remaining binding at 1 µM (PIK3CG): 90%; remaining binding at 1 µM [1]: 89%; remaining binding at 1 µM (PAK2): 67%; remaining binding at 1 µM (CAMK2G): 84%; remaining binding at 1 µM (BRK): 87%; remaining binding at 0.1 µM (NIM1): 99%; remaining binding at 1 µM (EPHA3; 1000 nM): 100%; remaining binding at 0.1 µM (EPHA3; compound concentration 100 nM, Entrez EPHA3): 77%; remaining binding at 1 µM (TAOK3): 96%; remaining binding at 1 µM (EPHA4; 1000 nM): 100%; remaining binding at 0.1 µM (EPHA4; compound concentration 100 nM, Entrez EPHA4): 99%; remaining binding at 1 µM (SNARK): 92%; remaining binding at 1 µM (SYK): 95%; remaining binding at 1 µM (SLK): 78%; remaining binding at 1 µM (BRSK1): 85%; remaining binding at 1 µM (MST2): 80%; remaining binding at 0.1 µM (MEK1): 91%; remaining binding at 1 µM (FLT3; 1000 nM): 100%; remaining binding at 0.1 µM (FLT3; compound concentration 100 nM, Entrez FLT3): 96%; remaining binding at 1 µM (PCTK2): 90%; remaining binding at 1 µM (TTK): 93%
